Results published in PubChem BioAssay AID1963836 (Molecular Pharmacology Branch, DTP, NCI, 2024).

Test system: 857933-349-R-J2-PDC complex spheroid viability
Assay: Anticancer human tumor 857933-349-R-J2-PDC patient-derived colon adenocarcinoma cell line growth inhibition [POLQ]
Conditions: for IC50: curve of first compound; for viability, T/C: stronger effect = lower value
Procedure, shortened: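 Complex spheroid viability model combining PDC tumour cells with endothelial (HUVEC) and MSC stromal cells. Novobiocin, ART-558 or RP6685 were tested singly and in combination with standard and investigational anticancer drugs. Each was titrated in half-log steps from near clinical Cmax, or from 10 microM where Cmax was unknown.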

[1] = second compound 0.0316 µM, first compound 0.0316 µM
[2] = second compound 0.0316 µM, first compound 0.1 µM
[3] = second compound 0.0316 µM, first compound 0.316 µM
[4] = second compound 0.0316 µM, first compound 1 µM
[5] = second compound 0.0316 µM, first compound 3.16 µM
[6] = second compound 0.0316 µM, first compound 10 µM
[7] = second compound 0.1 µM, first compound 0.0316 µM
[8] = second compound 0.1 µM, first compound 0.1 µM
[9] = second compound 0.1 µM, first compound 0.316 µM
[10] = second compound 0.1 µM, first compound 1 µM
[11] = second compound 0.1 µM, first compound 3.16 µM
[12] = second compound 0.1 µM, first compound 10 µM
[13] = second compound 0.316 µM, first compound 0.0316 µM
[14] = second compound 0.316 µM, first compound 0.1 µM
[15] = second compound 0.316 µM, first compound 0.316 µM
[16] = second compound 0.316 µM, first compound 1 µM
[17] = second compound 0.316 µM, first compound 3.16 µM
[18] = second compound 0.316 µM, first compound 10 µM
[19] = second compound 1 µM, first compound 0.0316 µM
[20] = second compound 1 µM, first compound 0.1 µM
[21] = second compound 1 µM, first compound 0.316 µM
[22] = second compound 1 µM, first compound 1 µM
[23] = second compound 1 µM, first compound 3.16 µM
[24] = second compound 1 µM, first compound 10 µM
[25] = second compound 3.16 µM, first compound 0.0316 µM
[26] = second compound 3.16 µM, first compound 0.1 µM
[27] = second compound 3.16 µM, first compound 0.316 µM
[28] = second compound 3.16 µM, first compound 1 µM
[29] = second compound 3.16 µM, first compound 3.16 µM
[30] = second compound 3.16 µM, first compound 10 µM
[31] = second compound 10 µM, first compound 0.0316 µM
[32] = second compound 10 µM, first compound 0.1 µM
[33] = second compound 10 µM, first compound 0.316 µM
[34] = second compound 10 µM, first compound 1 µM
[35] = second compound 10 µM, first compound 3.16 µM
[36] = second compound 10 µM, first compound 10 µM
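Note: spheroids exposed to compounds for seven days before readout.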

## CCc1cc2c(N3CCc4c(cc(Cn5ccnc5)cc4-c4cn(C)nc4C(F)(F)F)C3=O)cc(C)nc2c(OC)n1 + Cc1cccc(N(C)C(=O)C2C(O)CCN2c2nc(C)cc(C(F)(F)F)c2C#N)c1
Second compound 0.0316 µM
  IC50: > 10 µM
Second compound 0.1 µM
  IC50: > 10 µM
Second compound 0.316 µM
  IC50: > 10 µM
Second compound 1 µM
  IC50: > 10 µM
Second compound 3.16 µM
  IC50: > 10 µM
Second compound 10 µM
  IC50: > 10 µM
[1]
  viability, T/C: 106%
[2]
  viability, T/C: 93.2%
[3]
  viability, T/C: 99%
[4]
  viability, T/C: 79.9%
[5]
  viability, T/C: 75.1%
[6]
  viability, T/C: 62.3%
[7]
  viability, T/C: 106%
[8]
  viability, T/C: 103%
[9]
  viability, T/C: 78.5%
[10]
  viability, T/C: 82%
[11]
  viability, T/C: 77.6%
[12]
  viability, T/C: 68.8%
[13]
  viability, T/C: 100%
[14]
  viability, T/C: 89.6%
[15]
  viability, T/C: 83.5%
[16]
  viability, T/C: 82.8%
[17]
  viability, T/C: 80.3%
[18]
  viability, T/C: 61.6%
[19]
  viability, T/C: 99.6%
[20]
  viability, T/C: 83%
[21]
  viability, T/C: 86.3%
[22]
  viability, T/C: 85.2%
[23]
  viability, T/C: 73.8%
[24]
  viability, T/C: 61.9%
[25]
  viability, T/C: 107%
[26]
  viability, T/C: 91.3%
[27]
  viability, T/C: 82.7%
[28]
  viability, T/C: 77.8%
[29]
  viability, T/C: 60.2%
[30]
  viability, T/C: 55.1%
[31]
  viability, T/C: 95.4%
[32]
  viability, T/C: 99.9%
[33]
  viability, T/C: 92.5%
[34]
  viability, T/C: 72.6%
[35]
  viability, T/C: 67.6%
[36]
  viability, T/C: 62.8%

## CCCS(=O)(=O)Nc1ccc(F)c(C(=O)c2c[nH]c3ncc(-c4ccc(Cl)cc4)cc23)c1F + Cc1cccc(N(C)C(=O)C2C(O)CCN2c2nc(C)cc(C(F)(F)F)c2C#N)c1
Second compound 0.0316 µM
  IC50: 6.96 µM
Second compound 0.1 µM
  IC50: 6.4 µM
Second compound 0.316 µM
  IC50: 6.8 µM
Second compound 1 µM
  IC50: 6.73 µM
Second compound 3.16 µM
  IC50: 6.62 µM
Second compound 10 µM
  IC50: 6.51 µM
[1]
  viability, T/C: 87.7%
[2]
  viability, T/C: 104%
[3]
  viability, T/C: 97%
[4]
  viability, T/C: 99.3%
[5]
  viability, T/C: 98.8%
[6]
  viability, T/C: 28.1%
[7]
  viability, T/C: 106%
[8]
  viability, T/C: 105%
[9]
  viability, T/C: 93.6%
[10]
  viability, T/C: 94.5%
[11]
  viability, T/C: 98.7%
[12]
  viability, T/C: 19.1%
[13]
  viability, T/C: 107%
[14]
  viability, T/C: 99.6%
[15]
  viability, T/C: 93.2%
[16]
  viability, T/C: 95.5%
[17]
  viability, T/C: 109%
[18]
  viability, T/C: 24.2%
[19]
  viability, T/C: 95.6%
[20]
  viability, T/C: 111%
[21]
  viability, T/C: 99.5%
[22]
  viability, T/C: 91.3%
[23]
  viability, T/C: 103%
[24]
  viability, T/C: 23.6%
[25]
  viability, T/C: 92.1%
[26]
  viability, T/C: 96%
[27]
  viability, T/C: 82.2%
[28]
  viability, T/C: 100%
[29]
  viability, T/C: 102%
[30]
  viability, T/C: 25.2%
[31]
  viability, T/C: 115%
[32]
  viability, T/C: 99%
[33]
  viability, T/C: 97%
[34]
  viability, T/C: 99.9%
[35]
  viability, T/C: 96.5%
[36]
  viability, T/C: 22.3%
